Here are results for eleven molecules from patent publication US20240033277A1, “METHODS FOR TREATING AUTOIMMUNE DISEASES” (NEW YORK SOCIETY FOR THE RELIEF OF THE RUPTURED AND …, priority 2020, published 2024).

Data set [1] concerns TLR9-activated pDCs. The data set can be described thus: IFNA gene expression (Q-PCR) in pDCs activated with TLR9 agonist CpG-C274. The format is cell-based, human. As to conditions: for IFNA (IFN-I) expression in TLR9-activated pDCs: UK5099 at 10, 20, and 40 μM or CB839 at 0.5 μM for 1 h, FIGS. 11B-11C; for IFNA expression in TLR9-activated pDCs under ER stress plus IRE1α inhibitor: TM or TG with MKC8866 at 1 μM or 4μ8c at 10 μM for 3 h, FIGS. 1F, 1G, 6C, 6D.

The subject of data set [2] is pDCs. Nature of the data set: Intracellular ATP in pDCs (ATP determination kit). It counts as cell-based, human. The note with it: then TLR9 agonist. How it is done:
(§1) Supernatants were removed, and cells were deproteinated in 0.5 ml of 0.5M MPA on ice for 5 min, followed by centrifugation at 10000×g for 5 min at 4° C. The deproteinated samples were neutralized with 25 μl of potassium carbonate, and then centrifugation at 10000×g for 5 min at 4° C. The supernatant was removed and deproteinated samples were used for pyruvate assay. For ATP determination, ATP determination kit (Sigma: A22066) was used in pDCs extracts as per the manufacture protocol.

Data set [3] has as its system TLR9-activated pDCs. The data set can be described thus: Secreted IFN-α (ELISA) from pDCs activated with TLR9 agonist. It counts as cell-based, human.
Data set [4] has as its system TLR9-activated pDCs. Nature of the data set: IFN-I gene and interferon-stimulated gene (ISG) expression in TLR9-activated pDCs (RNA-seq, Q-PCR). It counts as cell-based, human. As to conditions: CPI-613 at 100 & 200 μM for 1 h, then TLR9 agonist for 5 h; FIGS. 8A-8E.
For data set [5], the system named is IRE1α-XBP1 signaling in pDCs. The data set can be described thus: XBP1 splicing (Q-PCR) in pDCs. It counts as cell-based, human.
The test system of data set [6] is pDCs. The data set can be described thus: Serine biosynthesis gene expression (PHGDH, PSAT1, PSPH; Q-PCR) in pDCs. It counts as cell-based, human.
The test system of data set [7] is pDCs. The data set can be described thus: Cell viability of pDCs by flow cytometry (DAPI). As to conditions: CPI-613 at 100 & 200 μM for 1 h, then TLR9 agonist for 5 h; FIG. 8F.
Method: (§2) After 6-8 h of cell culture, pDCs were washed in PBS and then resuspending in FACS buffer and stained with DAPI. Cells were acquired by a fluorescence activated cell sorter (FACS) and analysis was performed using FlowJo analysis software. The gating strategy for viable cells involved progressively measuring total cells without uptake of DAPI.
(§3) Cell viability using Flow cytometry. After 6 h of cell culture, pDCs were washed in PBS and then resuspended in FACS buffer and stained with DAPI. Cells were acquired by a fluorescence activated cell sorter (FACS) and analysis was performed using FlowJo analysis software. The gating strategy for viable cells involved progressively measuring total cells without uptake of DAPI.
Data set [8] deals with pDCs of SSc patients. The data set can be described thus: IFN-inducible gene expression in pDCs of patients with SSc. It counts as cell-based, human. As to conditions: CPI-613 at 200 μM for 13 h; FIG. 4G.
Data set [9] deals with pDCs of SSc patients. Nature of the data set: Secreted CXCL4 (ELISA) from pDCs of patients with SSc. It counts as cell-based, human. As to conditions: CPI-613 at 200 μM for 13 h, FIG. 4H.
Data set [10] relates to pDCs.
Method: as §2, §3
The subject of data set [11] is pDCs. The data set can be described thus: IFN-α expression in pDCs cultured with ER stress inducers alone. The format is cell-based, human. As to conditions: TM at 3 μg/ml or TG at 0.5 μM, no TLR agonist; FIGS. 1A, 1B.
In data set [12] the test system is TLR9-activated pDCs. Nature of the data set: IL-6 gene expression (Q-PCR) in TLR9-activated pDCs. The note with it: TM or TG for 3 h, then TLR9 agonist; quantified at 5 h; FIG. 5F. The format is cell-based, human.
For data set [13], the system named is pDCs. Nature of the data set: Intracellular pyruvate in pDCs (pyruvate detection kit). The note with it: then TLR9 agonist for 2.5 h, FIGS. 2K, 2L. It counts as cell-based, human. How it is done:
as §1, with “Intracellular pyruvate were determined in pDCs by pyruvate detection kit (Cayman chemicals: 700470) as per the manufacture protocol. pDC cultured in RPMI medium were washed in 1 ml of PBS and centrifuged at 10000×g for 5 min at 4° C. Supernatants” for “Supernatants”

Data set [14] relates to pDCs. Nature of the data set: UPR and ER stress gene expression in pDCs (RNA-seq, Q-PCR). It counts as cell-based, human.
Setting [15] is: then CpG-C274 0.075 μM, 5 h, normalized to TLR9 agonist.

“Also recorded” adds a separate entry of the source.

As to `CC(=O)C(=O)[O-].[Na+]` [pyruvate, sodium pyruvate], in the data set on TLR9-activated pDCs [1] (TM or TG with sodium pyruvate 10 mM or α-KG 10 mM for 3 h, then TLR9 agonist, 5 h, FIGS. 3A-3D), the “IFNA expression by TLR9-activated pDCs under ER stress with metabolite supplementation” value was “sufficient to restore”. In addition, the “intracellular ATP levels under ER stress with metabolite supplementation” value in the data set with pDCs [2] (TM or TG with pyruvate 10 mM or α-KG 10 mM for 3 h, 2.5 h, FIGS. 3E-3H) was “restored”.
With `O=C(O)CCCCC(CCSCc1ccccc1)SCc1ccccc1` (stereo not drawn) [CPI-613, 6,8-bis-benzylthio-octanoic acid], the “IFNA expression in TLR9-activated pDCs” value in the data set on TLR9-activated pDCs [1] (CPI-613 at 100 μM & 200 μM for 1 h, then TLR9 agonist, 5 h, FIG. 3J) is recorded as “inhibited; also recorded: reduces”. The “secretion of IFN-α by TLR9-activated pDCs” value with TLR9-activated pDCs [3] (CPI-613 at 100 μM & 200 μM for 1 h, then TLR9 agonist, 13 h, FIG. 3K) is given as “inhibited”. Further, in the data set with TLR9-activated pDCs [3] (CPI-613 at 200 μM for 1 h, then TLR9 agonist with CXCL4, 13 h ELISA, FIG. 4F), the “induction of IFN-α by TLR9-stimulated pDCs in the presence of CXCL4” value is listed as “abrogated”. The “expression of ISGs such as GBP1, IRF7, ISG54, MxB, CXCL10” value in the data set on TLR9-activated pDCs [4] was “inhibited”. Besides, in data set [5] (CPI-613 at 100 & 200 μM for 1 h, then TLR9 agonist for 5 h, FIG. 8G), the “effect on XBP1 splicing” value is recorded as “no effect”. Besides, the “effect on expression of PHGDH” value in the data set on pDCs [6] (CPI-613 at 100 & 200 μM for 1 h, then TLR9 agonist for 5 h, FIG. 8H) was “no effect”. Besides, in the data set with pDCs [2] (CPI-613 at 100 μM & 200 μM for 1 h, 4 h, normalized to medium, FIG. 3L), the “intracellular ATP levels in TLR9-activated pDCs” value is on record as “reduced”. Further, the “effect on cell viability” value with pDCs [7] is given as “no effect”. Moreover, the “expression of IFN-inducible genes (GBP1, IRF7, ISG54, MxB, OAS2) by pDCs of SSc patients” value with pDCs of SSc patients [8] is on record as “drastically reduced”. The “secretion of CXCL4” value with pDCs of SSc patients [9] is “no effect”.
As for `O=C(Cc1cccc(OC(F)(F)F)c1)Nc1ccc(CCCCc2nnc(NC(=O)Cc3ccccn3)s2)nn1` [CB839], in the data set with TLR9-activated pDCs [1] (setting [15]), the “IFNA (IFN-I) expression in TLR9-activated pDCs” value is “Inhibit”.
The same measure, in the same setting: in the case of `N#C/C(=C\c1cn(-c2ccccc2)c2ccccc12)C(=O)O` [UK5099] it was “Inhibit”.
On to `COc1cc2c(C)c(CC(=O)N3CCOCC3)c(=O)oc2c(C=O)c1O` [MKC8866], for which the “IFNA expression in TLR9-activated pDCs under ER stress plus IRE1α inhibitor” value in the data set on TLR9-activated pDCs [1] (then TLR9 agonist, 5 h) is given as “prevented ER stress-driven inhibition of IFN-α”.
In the case of `C/C=C(/C)C(=O)O[C@H]1C(C)=C2[C@H]([C@@H]1OC(=O)CCCCCCC)[C@@](C)(OC(C)=O)C[C@H](OC(=O)CCC)[C@@]1(O)[C@H]2OC(=O)[C@@]1(C)O` [thapsigargin, Thapsigargin], the “expression levels of IFNA in response to TLR9” value with TLR9-activated pDCs [1] (TM 3 μg/ml or TG 0.5 μM for 3 h, then CpG-C274 0.075 μM, quantified at 5 h, normalized to TLR9 agonist, FIG. 1A) is given as “drastically inhibited”. In addition, the effect on viability result in the data set on pDCs [10] is reported as “negligible effects”. Besides, the PHGDH gene expression result in the data set with pDCs [6] (TM or TG for 3 h, followed by TLR9 agonist for 5 h, FIG. 2D) was “markedly induced”. The “serine biosynthesis gene expression (PHGDH, PSAT1, PSPH), irrespective of TLR9 signaling” value in the data set with pDCs [6] (TM or TG for 3 h, followed by TLR9 agonist for 5 h, FIGS. 2D, 7C, 7D) was “induction”. In addition, the “capacity to express IFN-α with ER stress inducer alone” value in the data set with pDCs [11] is “not impacted”. The “intracellular ATP levels under ER stress” value in the data set with pDCs [2] (TM or TG for 3 h, 2.5 h, normalized to medium, FIGS. 3E-3H) was “reduced”. In addition, the “effect on IL-6 expression” value with TLR9-activated pDCs [12] was “negligible effects”. For the same molecule, the “intracellular pyruvate levels in ER stressed-pDCs” value in the data set on pDCs [13] (TM or TG for 3 h) is recorded as “significantly reduced”. For the same molecule, in the data set with pDCs [14] (pDCs from HDs cultured 8 h, TM at 3 μg/ml or TG at 0.5 μM vs media alone, FIGS. 5A-5D), the “induction of the unfolded protein response (UPR), RNA-seq” value is recorded as “strong induction”.
Consider `Cc1cc(=O)oc2c(C=O)c(O)ccc12` [4μ8c], for which, in the data set with TLR9-activated pDCs [1] (then TLR9 agonist, 5 h), the “IFNA expression in TLR9-activated pDCs under ER stress plus IRE1α inhibitor” value is recorded as “prevented ER stress-driven inhibition of IFN-α”.
For `Cc1cc(C)nc(NC(=S)N2CCN(Cc3ccc(C(F)(F)F)cc3)CC2)c1` [NCT-503], the “IFNA expression by TLR9-activated pDCs facing ER stress plus PHGDH inhibitor” value in the data set on TLR9-activated pDCs [1] (TM or TG with NCT-503 at 2 μM for 3 h, then TLR9 agonist, 5 h, FIGS. 2H, 2I) is recorded as “restored”. Further, the “intracellular ATP levels under ER stress plus PHGDH inhibitor” value in the data set with pDCs [2] (tunicamycin with NCT-503 at 2 μM for 3 h, 2.5 h, FIG. 3I) was “restored”. The “intracellular pyruvate levels in ER stressed-pDCs plus PHGDH inhibitor” value in the data set on pDCs [13] (TM or TG with NCT-503 at 2 μM for 3 h) was “restored”.
Consider `N[C@@H](CO)C(=O)O` [L-serine], for which the “IFN-α secretion by TLR9-activated pDCs” value in the data set with TLR9-activated pDCs [3] (L-serine 1 mg/ml for 1 h, then TLR9 agonist, 13 h, FIG. 2J) is on record as “unaltered”.
Take `Cc1ccc(OCCN(C)C(=O)Cn2cc(NC(=O)CCOc3ccccc3)cn2)cc1` [IXA4]: the “IFNA expression in TLR9-activated pDCs” value with TLR9-activated pDCs [1] (IXA4 at 10 μM & 30 μM for 1 h, then TLR9 agonist, 5 h, FIG. 1I) is reported as “abrogated”. Besides, the XBP1 splicing entry in [5] (IXA4 at 10 μM & 30 μM for 6 h, FIG. 1H) is given as “enhanced”. The PHGDH gene expression entry in the data set with pDCs [6] (IXA4 at 30 μM for 6 h, normalized to medium, FIG. 2F) was “conversely induced”.

B1: CXCL4: chemokine CXCL4 (Sigma: SRP3142) added to pDC culture at 3 μg/ml (protein, UniProt P02776 32-101, looked up)
Platelet factor 4: EAEEDGDLQCLCVKTTSQVRPRHITSLEVIKAGPHCPTAQLIATLKNGRKICLDLQAPLYKKIIKKLLES
Take B1: the “IFN-α expression by TLR9-activated pDCs undergoing ER stress” value in the data set on TLR9-activated pDCs [1] (tunicamycin 3 h, then TLR9 agonist with CXCL4 3 μg/ml, 5 h, FIG. 10A) is “restore”. For the same molecule, the “IFN-α secretion by TLR9-activated pDCs undergoing ER stress” value in the data set with TLR9-activated pDCs [3] (tunicamycin 3 h, then TLR9 agonist with CXCL4 3 μg/ml, 13 h, FIG. 4C) is reported as “restore”. For the same molecule, in the data set on pDCs [6] (tunicamycin 3 h, then TLR9 agonist with CXCL4 3 μg/ml, 5 h, FIG. 4E), the “PHGDH upregulation under ER stress” value is recorded as “dampened”. Further, the “expression of UPR genes (XBP1, spliced XBP1, HSPA5, DNAJB9) facing ER stress” value in the data set on pDCs [14] (tunicamycin 3 h, then TLR9 agonist with CXCL4 3 μg/ml, 5 h, FIG. 4D) is on record as “significant decrease”.
